The source of these data is ChEMBL document CHEMBL3616439, “Synthesis, α-glucosidase inhibitory and molecular docking studies of prenylated and geranylated flavones, isoflavones and chalcones” (Bioorg Med Chem Lett, 2015).

The source made the active and inactive calls. No cut-off for these calls is given here.

Assay [1] is described as follows: Inhibition of baker's yeast alpha-glucosidase using p-nitrophenyl-alpha-D-glucopyranoside as substrate after 30 mins by spectrophotometric analysis. More on the design: species or system Saccharomyces cerevisiae.
Assay [2] deals with Saccharomyces cerevisiae. In words: Competitive inhibition of baker's yeast alpha-glucosidase using p-nitrophenyl-alpha-D-glucopyranoside as substrate at 1.5 to 2 uM preincubated for 30 mins followed by substrate addition by Lineweaver-Burk plot analysis.
Assay [3] deals with Saccharomyces cerevisiae. In words: Mixed-type inhibition of baker's yeast alpha-glucosidase using p-nitrophenyl-alpha-D-glucopyranoside as substrate at 4 to 6 uM preincubated for 30 mins followed by substrate addition by Lineweaver-Burk plot analysis.
Assay [4] concerns Saccharomyces cerevisiae. As to the kind of experiment: Potency index, ratio of acarbose IC50 to compound IC50 for baker's yeast alpha-glucosidase.
The subject of assay [5] is Saccharomyces cerevisiae. In words: Competitive inhibition of baker's yeast alpha-glucosidase using p-nitrophenyl-alpha-D-glucopyranoside as substrate at 1 to 2 uM preincubated for 30 mins followed by substrate addition by Lineweaver-Burk plot analysis.

By IC50 is commonly meant the concentration that gives 50% inhibition. Low values mean greater potency, high ones weaker potency. As to `C[C@H]1O[C@H](O[C@H]2[C@H](O)[C@@H](O)[C@@H](O[C@H]3[C@H](O)[C@@H](O)C(O)O[C@@H]3CO)O[C@@H]2CO)[C@H](O)[C@@H](O)[C@@H]1N[C@H]1C=C(CO)[C@@H](O)[C@H](O)[C@H]1O` (stereo partly drawn) [ACARBOSE], the IC50 in assay [1] turned out to be 51.3 µM. Same read-out and setting: with `CC(C)=CCc1c(O)cc(O)c2c(=O)c(O)c(-c3ccc(O)c(O)c3)oc12` the figure was 4.38 µM. In assay [1], `CC(C)=CCC/C(C)=C/Cc1c(O)cc(O)c2c(=O)c(O)c(-c3ccc(O)c(O)c3)oc12` had an IC50 of 1.15 µM. Besides, the inhibition result in assay [2] is “Active”.

`COc1ccc(-c2coc3c(C/C=C(\C)CCC=C(C)C)c(OC)cc(O)c3c2=O)cc1` displayed an IC50 in assay [1] above 100 µM. `COc1ccc(/C=C/C(=O)c2cc(CC=C(C)C)c(OC)cc2OC)cc1`: the IC50 in assay [1] was above 100 µM. On the same count and under the same terms, with `CC(C)=CCC/C(C)=C/Cc1cc(C(=O)/C=C/c2ccc(O)cc2)c(O)cc1O` the figure was 16.3 µM. For `CC(C)=CCC/C(C)=C/Cc1c(O)cc(O)c2c(=O)c(-c3ccc(O)cc3)coc12`, in assay [3], the inhibition entry is “Active”. In assay [1], this compound gave an IC50 of 6.26 µM. Consider `COc1ccc(-c2coc3c(CC=C(C)C)c(OC)cc(O)c3c2=O)cc1`, for which the IC50 in assay [1] is above 100 µM. Same read-out and setting: with `O=c1c(-c2ccc(O)cc2)coc2cc(O)cc(O)c12` [GENISTEIN] the figure was 50.1 µM. The compound `CC(C)=CCC/C(C)=C/Cc1cc(C(=O)/C=C/c2ccc(O)cc2)c(O)c(CC=C(C)C)c1O` yielded an IC50 in assay [1] of 9 µM.

Turning to `CC(C)=CCc1cc(C(=O)/C=C/c2ccc(O)cc2)c(O)cc1O` [BROUSSOCHALCONE B], in assay [1], half-maximal inhibition (IC50) was put at 5.3 µM. Same read-out and setting: to `CC(C)=CCc1c(O)cc(O)c2c(=O)c(-c3ccc(O)cc3)coc12` belongs above 100 µM; to `O=c1c(O)c(-c2ccc(O)c(O)c2)oc2cc(O)cc(O)c12` [QUERCETIN], 11 µM; to `CC(C)=CCC/C(C)=C/Cc1c(O)c(CC=C(C)C)cc(C(=O)/C=C/c2ccc(O)cc2)c1O`, 11.5 µM.

Compound `COc1ccc(-c2coc3c(CC=C(C)C)c(OC)cc(OC)c3c2=O)cc1` gave an IC50 in assay [1] above 100 µM. For the compound `CC(C)=CCC/C(C)=C/Cc1cc(C(=O)/C=C/c2ccc(O)cc2)c(O)c(C/C=C(\C)CCC=C(C)C)c1O`, the Ratio IC50 in assay [4] amounted to 50. The IC50 in assay [1] came out at 0.9 µM. The inhibition entry in assay [5] is “Active”. In the case of `COc1ccc(-c2coc3c(C/C=C(\C)CCC=C(C)C)c(OC)cc(OC)c3c2=O)cc1`, the IC50 in assay [1] was above 100 µM. The same measure, in the same setting: to `CC(C)=CCc1cc(C(=O)/C=C/c2ccc(O)cc2)c(O)c(CC=C(C)C)c1O` [MEDICAGENIN] belongs 6.9 µM; to `O=C(/C=C/c1ccc(O)cc1)c1ccc(O)cc1O` [ISOLIQUIRITIGENIN], above 100 µM.
